# Results: article PMC11203575, “The First In Vivo Study Shows That Gyrophoric Acid Changes Behavior of Healthy Laboratory Rats” (International Journal of Molecular Sciences, 2024)
# Biological target: T1, human serum albumin (HSA) (Homo sapiens, UniProt P02768)
# T1 construct: gene ALB; Albumin from human serum (A1887, Sigma Aldrich)
# Experiment: intrinsic fluorescence quenching titration (Stern-Volmer), synchronous and 3D fluorescence
# Type: binding
# Conditions: read-out: KB × 10^6 (M^-1) (converted)
# T1 sequence (P02768 25-609): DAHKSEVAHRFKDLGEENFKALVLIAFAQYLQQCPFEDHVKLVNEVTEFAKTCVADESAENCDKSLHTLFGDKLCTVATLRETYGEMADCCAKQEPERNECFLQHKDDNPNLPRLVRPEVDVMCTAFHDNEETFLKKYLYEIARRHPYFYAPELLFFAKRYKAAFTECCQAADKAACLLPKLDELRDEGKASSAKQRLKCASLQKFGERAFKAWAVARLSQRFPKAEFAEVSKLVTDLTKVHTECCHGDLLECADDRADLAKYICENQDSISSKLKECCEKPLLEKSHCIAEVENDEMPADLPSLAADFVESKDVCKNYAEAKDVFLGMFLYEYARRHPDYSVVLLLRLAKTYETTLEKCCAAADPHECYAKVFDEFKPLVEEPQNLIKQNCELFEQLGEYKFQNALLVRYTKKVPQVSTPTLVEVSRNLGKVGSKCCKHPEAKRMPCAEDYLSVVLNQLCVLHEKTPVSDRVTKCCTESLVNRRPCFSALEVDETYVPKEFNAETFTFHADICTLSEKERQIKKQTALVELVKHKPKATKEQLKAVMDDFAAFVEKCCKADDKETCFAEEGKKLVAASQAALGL
smiles,measurement,value
"Cc1cc(OC(=O)c2c(C)cc(OC(=O)c3c(C)cc(O)cc3O)cc2O)cc(O)c1C(=O)O [GA, Gyrophoric acid]",Kd,559 nM
